Where “and” joins values, the source holds several entries; their conditions need not be identical. Equal values may be shown once. Inconclusive results and toxic doses are left out. Rule for the calls: active = survival T/C of 150% or more; inactive = T/C below 125% in these data.
Test system: BDF1 mice, P388 leukemia ip, median survival T/C
Assay: NCI In Vivo Anticancer Drug Screen. Data for tumor model P388 Leukemia (intraperitoneal) in B6D2F1 (BDF1) mice
Details: endpoint: median survival time, higher = longer survival
Method in brief: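 Reported as T/C, where T is the survival measurement in dosed animals and C the same measurement in vehicle controls.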

[1] = dose: 50.0 mg/kg/injection, schedule: Q01DX009 (ip), vehicle: saline
[2] = dose: 50.0 mg/kg/injection, schedule: Q04DX003 (ip), vehicle: saline
[3] = dose: 100.0 mg/kg/injection, schedule: Q01DX009 (ip), vehicle: saline
[4] = dose: 200.0 mg/kg/injection, schedule: Q04DX003 (ip), vehicle: saline
[5] = dose: 50.0 mg/kg/injection, schedule: Q01DX009 (ip), vehicle: saline with Tween-80
[6] = dose: 100.0 mg/kg/injection, schedule: Q01DX009 (ip), vehicle: saline with Tween-80
[7] = dose: 100.0 mg/kg/injection, schedule: Q04DX003 (ip), vehicle: saline with Tween-80
[8] = dose: 200.0 mg/kg/injection, schedule: Q01DX009 (ip), vehicle: saline with Tween-80
[9] = dose: 200.0 mg/kg/injection, schedule: Q01DX009 (ip), vehicle: saline
[10] = dose: 50.0 mg/kg/injection, schedule: Q01DX005 (ip), vehicle: saline with Tween-80
[11] = dose: 100.0 mg/kg/injection, schedule: Q01DX005 (ip), vehicle: saline with Tween-80
[12] = dose: 200.0 mg/kg/injection, schedule: Q01DX005 (ip), vehicle: saline with Tween-80
[13] = dose: 100.0 mg/kg/injection, schedule: Q01DX009 (ip), vehicle: Klucel (hydroxypropylcellulose) (HPC)
[14] = dose: 200.0 mg/kg/injection, schedule: Q01DX009 (ip), vehicle: Klucel (hydroxypropylcellulose) (HPC)
[15] = dose: 100.0 mg/kg/injection, schedule: Q04DX003 (ip), vehicle: saline
[16] = dose: 100.0 mg/kg/injection, schedule: Q01DX009 (ip), vehicle: other
[17] = dose: 200.0 mg/kg/injection, schedule: Q01DX009 (ip), vehicle: other
[18] = dose: 200.0 mg/kg/injection, schedule: Q04DX003 (ip), vehicle: saline with Tween-80
[19] = dose: 400.0 mg/kg/injection, schedule: Q04DX003 (ip), vehicle: saline with Tween-80
[20] = dose: 100.0 mg/kg/injection, schedule: Q01DX001 (ip), vehicle: saline with Tween-80
[21] = dose: 200.0 mg/kg/injection, schedule: Q01DX001 (ip), vehicle: saline with Tween-80
[22] = dose: 25.0 mg/kg/injection, schedule: Q01DX009 (ip), vehicle: Klucel (hydroxypropylcellulose) (HPC)
[23] = dose: 50.0 mg/kg/injection, schedule: Q01DX009 (ip), vehicle: Klucel (hydroxypropylcellulose) (HPC)

Measured: T/C

CC[As](=O)(O)CC
inactive: [1] 103 % of control | [2] 100 % of control | [3] 100 % of control and 108 % of control | dose: 132.0 mg/kg/injection, schedule: Q01DX009 (ip), vehicle: saline 95 % of control | [4] 108 % of control

CC1CCCC/C1=N/NC(=O)c1ccccc1 (stereo not drawn)
inactive: [5] 87 % of control | [6] 91 % of control | [7] 95 % of control

O=C(c1ccccc1)C1CN(C2CCCC2)C1c1ccccc1 (stereo not drawn)
inactive: [5] 91 % of control | [6] 92 % of control | [8] 91 % of control

CCCN(CCC)CCCOC(=O)c1ccc([N+](=O)[O-])cc1
inactive: dose: 50.0 mg/kg/injection, schedule: Q01DX001 (ip), vehicle: saline 100 % of control | dose: 100.0 mg/kg/injection, schedule: Q01DX001 (ip), vehicle: saline 100 % of control | dose: 200.0 mg/kg/injection, schedule: Q01DX001 (ip), vehicle: saline 100 % of control

O/N=C(/C(=N/O)c1ccccc1)c1ccccc1.O/N=C(/C(=N/O)c1ccccc1)c1ccccc1.[Cl][Rh][Cl]
inactive: dose: 25.0 mg/kg/injection, schedule: Q01DX009 (ip), vehicle: saline 119 % of control | [1] 117 % of control | [3] 94 % of control | [9] 103 % of control | dose: 400.0 mg/kg/injection, schedule: Q01DX009 (ip), vehicle: saline 95 % of control

O=c1[nH]c(=O)c(C2OC(CO)C(O)C2O)co1 (stereo not drawn)
inactive: dose: 20.0 mg/kg/injection, schedule: Q04DX003 (ip), vehicle: saline with Tween-80 100 % of control

O=C1Cc2cc(=C(c3ccccc3)c3ccccc3)ccc2=C1c1ccccc1
inactive: [10] 93 % of control | [11] 96 % of control | [12] 91 % of control

Nc1ccc(CCc2ccc(N)cc2[N+](=O)[O-])c([N+](=O)[O-])c1
inactive: [13] 100 % of control | [14] 100 % of control | dose: 400.0 mg/kg/injection, schedule: Q01DX009 (ip), vehicle: Klucel (hydroxypropylcellulose) (HPC) 100 % of control

CCOC(=O)N1C=Cn2c(cnc2C)C1OCC (stereo not drawn)
inactive: [15] 102 % of control | [4] 112 % of control | dose: 400.0 mg/kg/injection, schedule: Q04DX003 (ip), vehicle: saline 116 % of control

CC(C)(Br)C(=O)c1ccco1
inactive: dose: 25.0 mg/kg/injection, schedule: Q01DX009 (ip), vehicle: saline with Tween-80 109 % of control | [5] 113 % of control | [6] 113 % of control

COc1cccc(C(=O)CC(O)(C(F)(F)F)C(F)(F)F)c1
inactive: [16] 91 % of control | dose: 100.0 mg/kg/injection, schedule: Q04DX003 (ip), vehicle: other 100 % of control | [17] 95 % of control | dose: 200.0 mg/kg/injection, schedule: Q04DX003 (ip), vehicle: other 100 % of control | dose: 400.0 mg/kg/injection, schedule: Q01DX009 (ip), vehicle: other 104 % of control | dose: 400.0 mg/kg/injection, schedule: Q04DX003 (ip), vehicle: other 100 % of control

O=C1NC(C2CCC3CN32)C(=O)NC1C1CCC2CN21 (stereo not drawn)
active: dose: 0.8 mg/kg/injection, schedule: Q01DX009 (ip), vehicle: saline 164 % of control and 173 % of control
inactive: dose: 0.05 mg/kg/injection, schedule: Q01DX009 (ip), vehicle: saline 91 % of control and 118 % of control | dose: 0.1 mg/kg/injection, schedule: Q01DX009 (ip), vehicle: saline 96 % of control | dose: 0.2 mg/kg/injection, schedule: Q01DX009 (ip), vehicle: saline 107 % of control

CC(C)C1(C(C)C)OCCO1
inactive: [2] 87 % of control | [15] 108 % of control | [4] 100 % of control

Cc1cc(OC(=O)Nc2cccc(Cl)c2C)ccc1Cl
inactive: [7] 104 % of control | [18] 104 % of control | [19] 109 % of control

Cn1c2ccccc2c(=S)c2c(O)cc3c(c21)C=CC(C)(C)O3
inactive: [10] 89 % of control | [11] 90 % of control | [12] 89 % of control

CCN(CC)CC(=O)Nc1ccc(Cl)cc1C(O)c1ccccc1 (stereo not drawn)
inactive: [1] 103 % of control | [3] 97 % of control | [9] 100 % of control

CS(=O)(=O)Nc1ccc(NS(C)(=O)=O)cc1
inactive: [20] 112 % of control | [21] 100 % of control | dose: 400.0 mg/kg/injection, schedule: Q01DX001 (ip), vehicle: saline with Tween-80 100 % of control

CCCCc1ccc(C#N)nc1
inactive: [5] 98 % of control | [6] 106 % of control | [8] 108 % of control

COc1cccc(/C=C/C(=O)c2ccc(Cl)cc2)c1OC
inactive: dose: 50.0 mg/kg/injection, schedule: Q01DX009 (ip), vehicle: other 95 % of control | [16] 104 % of control | [6] 100 % of control | [17] 95 % of control | dose: 400.0 mg/kg/injection, schedule: Q01DX009 (ip), vehicle: saline with Tween-80 100 % of control

COC(=O)C1CCCC23CC(CC12)C(C)(C)C3Br (stereo not drawn)
inactive: dose: 100.0 mg/kg/injection, schedule: Q04DX003 (ip), vehicle: Klucel (hydroxypropylcellulose) (HPC) 95 % of control | dose: 200.0 mg/kg/injection, schedule: Q04DX003 (ip), vehicle: Klucel (hydroxypropylcellulose) (HPC) 100 % of control | dose: 400.0 mg/kg/injection, schedule: Q04DX003 (ip), vehicle: Klucel (hydroxypropylcellulose) (HPC) 90 % of control

c1ccc(C(c2ccccc2)[n+]2ccccc2)cc1
inactive: dose: 3.13 mg/kg/injection, schedule: Q01DX009 (ip), vehicle: saline 91 % of control | dose: 12.5 mg/kg/injection, schedule: Q01DX009 (ip), vehicle: saline 114 % of control

C=CCCCCCCCCC(=O)N(C)OC
inactive: dose: 25.0 mg/kg/injection, schedule: Q01DX001 (ip), vehicle: saline with Tween-80 95 % of control | dose: 50.0 mg/kg/injection, schedule: Q01DX001 (ip), vehicle: saline with Tween-80 109 % of control | [20] 118 % of control

COc1cc(C=Nc2ccc(-c3nc(Cc4ccccc4)sc3C)cc2)ccc1N(CCCl)CCCl
inactive: [23] 108 % of control
active: dose: 3.13 mg/kg/injection, schedule: Q01DX009 (ip), vehicle: Klucel (hydroxypropylcellulose) (HPC) 196 % of control | dose: 6.25 mg/kg/injection, schedule: Q01DX009 (ip), vehicle: Klucel (hydroxypropylcellulose) (HPC) 206 % of control | dose: 12.5 mg/kg/injection, schedule: Q01DX009 (ip), vehicle: Klucel (hydroxypropylcellulose) (HPC) 221 % of control | [22] 194 % of control and 198 % of control

C[N+](C)(C)c1ccc2c(c1)CCC/C2=N\N
inactive: dose: 6.25 mg/kg/injection, schedule: Q04DX003 (ip), vehicle: saline with Tween-80 94 % of control

Cc1ccc(C(=O)C(Br)C(Br)c2ccccc2)cc1 (stereo not drawn)
inactive: [7] 95 % of control | [18] 94 % of control | [19] 103 % of control

Nc1nc(=S)[nH]c(C(=O)O)c1Cc1ccccc1
inactive: [22] 109 % of control | [23] 86 % of control and 115 % of control | [13] 115 % of control | [14] 120 % of control

CC(CCCN(CCCl)CCCl)Nc1ccnc2cc(Cl)ccc12 (stereo not drawn)
active: dose: 0.66 mg/kg/injection, schedule: Q01DX009 (ip), vehicle: saline 154 % of control | dose: 1.0 mg/kg/injection, schedule: Q01DX009 (ip), vehicle: saline 154 % of control
inactive: dose: 0.5 mg/kg/injection, schedule: Q04DX003 (ip), vehicle: saline 100 % of control | dose: 1.0 mg/kg/injection, schedule: Q04DX003 (ip), vehicle: saline 100 % of control | dose: 2.0 mg/kg/injection, schedule: Q04DX003 (ip), vehicle: saline 111 % of control

[O-][n+]1c(-c2ccccc2)cn2ccccc21
inactive: [20] 105 % of control | [21] 98 % of control
